Data: patent US20220307053A1, “REGULATABLE EXPRESSION SYSTEMS” (Novartis AG, priority 2019, published 2022)
Entries after “also recorded” stand apart in the source; their conditions may differ.

How the values were obtained:
[1] = test system: pSyn-snx7-PGRN (SNX7 switch) in primary rat neurons; assay: hPGRN expression by TR-FRET assay in pSyn-snx7-PGRN transfected primary rat neurons; format: cell-based; settings: 100 nm LMI070, 6 days post transfection
Description: (§1) Primary rat neurons were prepared from dissected rat embryo cortices digested with papain and cultured in complete Neurobasal media in 24-well poly-D-Lysine plates (Corning) at density 150,000 cells/well for 7 days. Half of the media was replaced with fresh media day before transfection. […] Transfection media was replaced with conditioned media containing 50% fresh complete Neurobasal media 4 hours later. Next day, 1 mM stock of LMI070 in DMSO was diluted in 1/10,000 in DMEM to achieve concentrations 100 nm when added to the cells. Control cells received 0.01% DMSO. hPGRN expression was measured 6 days post transfection using TR-FRET assay. In pSyn-snx7-PGRN transfected cells, expression of hPGRN was induced by LMI070 more than 30 times comparing to DMSO-treated control (FIG. 6B). For RNA splicing analysis, total RNA was extracted from cells using Trizol (Invitrogen) according to manufacturer's protocol. cDNA was synthesized using Superscript III 1st strand supermix for qRT-PCR (Invitrogen). Inclusion of exon B was evaluated using qPCR by measuring amounts of exonB-exonC junction amplified by […] (SEQ ID NO: 103) and GCGGTTGCGAGGTTTATCT (SEQ ID NO: 104) primers pair as compared to total transgene mRNA amplified by primers specific to exon C, GCGGTTGCGAGGTTTATCT (SEQ ID NO: 104) and […] (SEQ ID NO: 105). […] Amounts of constitutively spliced RNA (i.e. exonA-exonC) was measured using […] […]

[2] = test system: SNX7 minigene exon B inclusion in HEK293 cells; assay: RNA splicing analysis by qPCR in pJSNX-GFP transfected HEK293 cells; format: cell-based, human
Description: (§2) HEK293 cells were maintained in complete DMEM media and seeded in 24-well plate at 100,000 cells per well densite day before transfection. Each well was transfected with 2 ug of pJSNX-GFP plasmid DNA using Lipofectamine2000 (Invitrogen) according to manufacturer's protocol. Transfection media was replaced with complete DMEM 4 hours later. Initial 1 mM stock of LMI070 in DMSO was diluted in 1/1,000-1/500,000 in DMEM to achieve concentrations 2 nm-1 uM when added to the cells in 24 hours later. Control cells received 0.1% DMSO. GFP expression was evaluated 48 hours post transfection using fluorescent microscope. […] For quantitative analysis of GFP expression, cells were trypsinized and analyzed by FACS using SONY SH-800 flow cytometer. Mean fluorescence intensity was used for relative measurement of GFP expression. […] For RNA splicing analysis, total RNA was extracted from cells using Trizol (Invitrogen) according to manufacturer's protocol. cDNA was synthesized using Superscript III 1st strand supermix for qRT-PCR (Invitrogen). Inclusion of exon B was evaluated using qPCR by measuring amounts of exonB-exonC amplified by […] […] Amounts of constitutively spliced RNA (i.e. exonA-exonC) was measured using […] […]

[3] = test system: ssAAV9 hPGRN with SNX7 switch (version 1) in mouse brain; assay: Dose response of hPGRN expression in mouse brain after oral LMI070 (ssAAV9 SNX7 switch version 1, TR-FRET); format: in vivo, FVB mice
Description: (§3) ssAAV9 viral vector encoding hPGRN under control of synapsin promoter with SNX7 switch (version 1) was produced in HEK293 cells and purified by iodixanol. 2e10vg of AAV vector in 2 uL was injected ICV in FVB neonatal mice at P0. At 4 weeks of age, 3, 10 or 30 mg/kg of LMI070 or vehicle control was administered orally through gavage. 6-7 mice per group were taken down at specified time points (FIG. 8A). After transcardial perfusion with PBS posterior half of the left hemisphere was homogenyzed in Precellys tube. TR-FRET assay was used for measurement of human PGRN expressed from AAV vector. Sample of human cortex was used as a control for physiological PGRN levels (˜200 pg/mg).

[4] = test system: SNX7 minigene exon B inclusion in primary rat neurons; assay: RNA splicing analysis by qPCR in pJSNX-GFP transfected primary rat neurons; format: cell-based
Description: Primary rat neurons were prepared from dissected rat embryo cortices digested with papain and cultured in complete Neurobasal media in 24-well poly-D-Lysine plates (Corning) at density 150,000 cells/well for 7 days. Half of the media was replaced with fresh media day before transfection. Each well was transfected with 2 ug of pJSNX-GFP plasmid DNA using Lipofectamine2000 (Invitrogen) according to manufacturer's protocol, except cells were washed three times with optiMEM before adding DNA-liposomes cocktails. Transfection media was replaced with conditioned media containing 50% fresh complete Neurobasal media 4 hours later. Next day, 1 mM stock of LMI070 in DMSO was diluted in 1/1,000-1/500,000 in DMEM to achieve concentrations 2 nm-1 uM when added to the cells. Control cells received 0.1% DMSO. GFP expression was evaluated 6 days post transfection using fluorescent microscope. […] For RNA splicing analysis, total RNA was extracted from cells using Trizol (Invitrogen) according to manufacturer's protocol. cDNA was synthesized using Superscript III 1st strand supermix for qRT-PCR (Invitrogen). Inclusion of exon B was evaluated using qPCR by measuring amounts of exonB-exonC amplified by […] […] Amounts of constitutively spliced RNA (i.e. exonA-exonC) was measured using […] […]

[5] = test system: SNX7 minigene exon B inclusion in primary rat neurons; assay: RNA splicing analysis by qPCR in pSyn-snx7-PGRN transfected primary rat neurons; format: cell-based; settings: 100 nm LMI070
Description: as §1

[6] = test system: ssAAV9 hPGRN with SNX7 switch (version 1) in mouse brain; assay: Time course of hPGRN expression in mouse brain after oral LMI070 (ssAAV9 SNX7 switch version 1, TR-FRET); format: in vivo; settings: C57Bl/6 mice
Description: as §3, with “C57Bl/6” for “FVB”, “age,” for “age, 3, 10 or”, “4-6” for “6-7”, “7A).” for “8A).”, “[…] The transgenic protein expression returned to untreated” for “Sample of human cortex was used as a control for physiological PGRN”, “after 4 days post LMI070 administration (FIG. 7B).” for “(˜200 pg/mg).”

[7] = test system: pJSNX-GFP (SNX7 minigene ON-switch) in HEK293 cells; assay: GFP expression from SNX7 minigene ON-switch in HEK293 cells (fluorescent microscope, FACS); format: cell-based, human; settings: LMI070 2 nm-1 uM, 48 hours post transfection, vs DMSO
Description: as §2

[8] = test system: SNX7 minigene switch in HEK293 cells; assay: Comparison of SNX7 switch version 1 and version 2 in HEK293 cells in response to LMI070; format: cell-based, human; settings: HEK293, plasmid DL182 (version 2) vs DL180 (version 1), LMI070 100 nm-1 uM, 48 hours post transfection
Description: The modified SNX7 minigene (version 2) was inserted into a scAAV vector using molecular cloning techniques. The sequence of the vector comprising the modified SNX7 minigene (version 2) is shown in SEQ ID NO: 95. HEK293 cells were maintained in complete DMEM media and seeded in 24-well plate at 100,000 cells per well densite day before transfection. Each well was transfected with 2 ug of plasmid DNA DL180 containing SNX7 switch version 1 or plasmid DL182 containing SNX7 version 2 using Lipofectamine2000 (Invitrogen) according to manufacturer's protocol. Transfection media was replaced with complete DMEM 4 hours later. Initial 1 mM stock of LMI070 in DMSO was diluted in 1/1,000-1/500,000 in DMEM to achieve concentrations 100 nm-1 uM when added to the cells in 24 hours later. Control cells received 0.1% DMSO. GFP expression was evaluated 48 hours post transfection using fluorescent microscope.

Molecule: CC1(C)CC(Oc2ccc(-c3ccc(-c4cn[nH]c4)cc3O)nn2)CC(C)(C)N1 [LMI070, 5-(1H-Pyrazol-4-yl)-2-(6-((2,2,6,6-tetramethylpiperidin-4-yl)oxy)pyridazin-3-yl)phenol]
- expression of hPGRN induced, comparing to DMSO-treated control [1]: more than 30 times
- Inclusion of exon B (exonB-exonC vs total transgene mRNA), upregulated as compared to DMSO-treated cells ([2]; HEK293, 125 nM LMI070): 75 times
- exonA-exonC splicing, lower as compared to control DMSO-treated cells ([2]; HEK293, 1 uM LMI070): 60 times
- transgene expression in brain vs LMI070 dose ([3]; FVB mice, 3, 10 or 30 mg/kg LMI070 orally): dose response; also recorded: switches on transgene expression in mouse brain in dose-dependent manner
- accumulation of transgenic hPGRN in the brain (time course) ([3]; FVB mice, ssAAV9 ICV at P0, 3, 10 or 30 mg/kg LMI070 orally at 4 weeks): rapid (12 hours post LMI070 administration) accumulation of transgenic hPGRN in the brain, which starts to decline at 24 hour point
- Inclusion of exon B, upregulated as compared to DMSO-treated cells ([4]; 31 nM LMI070): more than 100 times
- exonA-exonC splicing, lower as compared to control DMSO-treated cells ([4]; 500 nM LMI070): 30 times
- Inclusion of exon B, upregulated as compared to DMSO-treated cells [5]: more than 150 times
- exonA-exonC splicing, lower as compared to DMSO-treated cells [5]: 10 times
- time after which transgenic protein expression returned to untreated levels ([6]; 30 mg/kg LMI070 orally): 4 days
- hPGRN expression in the brain post LMI070 administration (time course) ([6]; ssAAV9 ICV at P0, 30 mg/kg LMI070 orally at 4 weeks): rapid and transient induction of hPGRN expression in the brain after 24 hours post LMI070 administration; also recorded: switches on transgene expression in mouse brain in time-dependent manner
- GFP expression (mean fluorescence intensity) [7]: dose-dependent increase in GFP expression

B1: modified SNX7 minigene (version 2): SNX7 minigene modified to reduce size and eliminate peptide expression in the absence of LMI070; tested in plasmid DL182 (nucleic acid)
DNA: GAAGAAGAAGATATCAAGTTAGCATTTACAGATTTGGCTGAGGAGAAGAACAGGTAATTAGTGTTGTTTGATATTGCTTCATTTTAAAGTTATTTGCTCATTTAGCATTTGATATTGCTTTCTATTGATTGTCCTAACTACTCCTCTTTCCTCTCCCTTCTCCATTTTTGAAGAGTTTGCAAAGGAAGGAAAGGAGCAGAGACTTGATTGAGCAGAAAATCATTTCAGGGCCTGTTCTCTATTGTCCTTGCTATCCTGTCTTCTGTAGCTATCTGAAACCATCAACAAAGGAGCACACCATGGCATCAGCAAAAGAGTAACAACATCTTTTTTTAAGTTCATTTTGTTTTTCAGTTGATTGTATTTCAATTTTTTTACAGCTGACTTTTCTCAGAGAAGTTTTTTTTTTATTGTAAACATACTTTTTCTAGAAAGTATATTTTAAAATAACATCTTTAACCTTATCTCTGGCTGAATTATTGAATATTTGAAATTATTACATTAACAAAATTTTGTCTTACAGCAGTGGTCCCCAACCTTCTTAGCAGTAGCATCCCTCATTAAGAATTAAAATTTGTAGAAATTGACAAGGATTCTGACAAGCTGTTGGGAGAGAAGAATAGAGCAGATTGCAGTAGGAACAGTTGTGTTAGAATTTATTAATCCTTTAACACTGAAAGTAAACTATTGTTGATTGCCTCTTGGTGTGTTTCCATTATTCAGTGCTCTTGCTAAGTGGGAGTCATTCCTTACATCAACCACCAACCTTCACTTGGAAGAAGCTAGCGAAGATAAACCT
- sensitivity of minigene switch in response to LMI070 (GFP expression) [8]: more sensitive than the previous version
